Results as given in patent publication US20120034193A1, “TREATMENT OF NEUROTROPHIC FACTOR MEDIATED DISORDERS” (priority 2009, published 2012).

Columns and labels:
Assay in all cases: Binding assay
Settings in all cases: smilagenin 1 μM
Adrenergic β3 = Adrenergic β3 (Homo sapiens, UniProt P13945)
Protocol: (§1) The receptor binding was investigated using the following method: Sarsasapogenin was incubated with tissue or cell homogenate that expressed the receptor of interest and a known concentration a radiolabelled compound with affinity for the receptor of interest. After the incubation period the non-bound radiolabelled compound was removed and the amount of specific binding was quantified. The amount of specific binding in the presence and absence of sarsasapogenin were compared and the percent inhibition of the binding of the radiolabelled compound by sarsasapogenin was calculated. The source of the receptor, the incubation conditions, the radiolabelled compound used varied depending on each specific assay.
(§2) Using the same methods as described above, the binding of smilagenin (1 μM) to the receptors listed in Table 2 below, and the effect of smilagenin on the activity of the enzymes listed in Table 2 below, were investigated.

[1] = target: Prostanoid Thromboxane A2 (TP) (Homo sapiens, UniProt P21731)
Protocol: as §1, §2

Tachykinin NK3 = Tachykinin NK3 (Homo sapiens, UniProt P29371)
Protocol: as §1, §2

Leukotriene, BLT (LTB4) = Leukotriene, BLT (LTB4) (Homo sapiens, UniProt Q15722)
Protocol: as §1, §2

Oestrogen (Erβ) = target: T1, Oestrogen (Erβ) (Homo sapiens, UniProt Q92731)
T1 construct: host or cells: tissue or cell homogenate (not specified)
Protocol: as §1, §2

Melanocortin MC5 = Melanocortin MC5 (Homo sapiens, UniProt P33032)
Protocol: as §1, §2

[2] = target: Calcitonin Gene-Related Peptide CGRP1 (Homo sapiens, UniProt O60894+Q16602)
Protocol: as §1, §2

Bradykinin B1 = Bradykinin B1 (Homo sapiens, UniProt P46663)
Protocol: as §1, §2

[3] = target: T2, G Protein-Coupled Receptor GPR 103 (Homo sapiens, UniProt Q96P65)
T2 construct: host or cells: tissue or cell homogenate (not specified)
Protocol: as §1, §2

Somatostatin sst2 = Somatostatin sst2 (Homo sapiens, UniProt P30874)
Protocol: as §1, §2

Erythropoietin EPOR = target: T3, Erythropoietin EPOR (Homo sapiens, UniProt P19235)
T3 construct: host or cells: tissue or cell homogenate (not specified)
Protocol: as §1, §2

[4] = target: T4, Epidermal Growth Factor (EGF) (Homo sapiens, UniProt P00533)
T4 construct: host or cells: tissue or cell homogenate (not specified)
Protocol: as §1, §2

Neuromedin U MNU1 = Neuromedin U MNU1 (Homo sapiens, UniProt Q9HB89)
Protocol: as §1, §2

Vasopressin V2 = target: T5, Vasopressin V2 (Homo sapiens, UniProt P30518)
T5 construct: host or cells: tissue or cell homogenate, not specified
Protocol: as §1, §2

[5] = target: Cholecystokinin CCK2 (CCKB) (Homo sapiens, UniProt P32239)
Protocol: as §1, §2

Bombesin BB3 = Bombesin BB3 (Homo sapiens, UniProt P32247)
Protocol: as §1, §2

Insulin = Insulin (Rattus norvegicus, UniProt P15127)
Protocol: as §1, §2

Dopamine D3 = Dopamine D3 (Homo sapiens, UniProt P35462)
Protocol: as §1, §2

Neuromedin U MNU2 = Neuromedin U MNU2 (Homo sapiens, UniProt Q9GZQ4)
Protocol: as §1, §2

Neurotensin NT1 = Neurotensin NT1 (Homo sapiens, UniProt P30989)
Protocol: as §1, §2

Melanocortin MC3 = Melanocortin MC3 (Homo sapiens, UniProt P41968)
Protocol: as §1, §2

Muscarinic M3 = target: T6, Muscarinic M3 (Homo sapiens, UniProt P20309)
T6 construct: host or cells: tissue or cell homogenate, not specified
Protocol: as §1, §2

Motilin = Motilin (Homo sapiens, UniProt O43193)
Protocol: as §1, §2

[6] = target: T7, Transporter, 5-hydroxytryptamine (SERT) (Homo sapiens, UniProt P31645)
T7 construct: host or cells: tissue or cell homogenate, not specified
Protocol: as §1, §2

[7] = target: 5-Hydroxytryptamine, 5-HT3 (Homo sapiens, UniProt P46098)
Protocol: as §1, §2

[8] = target: Androgen (testosterone) AR (Rattus norvegicus, UniProt P15207)
Protocol: as §1, §2

[9] = target: 5-Hydroxytryptamine, 5-HT2C (Homo sapiens, UniProt P28335)
Protocol: as §1, §2

Somatostatin sstl = Somatostatin sstl (Homo sapiens, UniProt P30872)
Protocol: as §1, §2

Opiate μ (OP3, MOP) = Opiate μ (OP3, MOP) (Homo sapiens, UniProt P35372)
Protocol: as §1, §2

Retanoid X Receptor RXRα = Retanoid X Receptor RXRα (Homo sapiens, UniProt P19793)
Protocol: as §1, §2

Angiotensin AT2 = Angiotensin AT2 (Homo sapiens, UniProt P50052)
Protocol: as §1, §2

Angiotensin AT1 = Angiotensin AT1 (Homo sapiens, UniProt P30556)
Protocol: as §1, §2

Adrenergic α1D = Adrenergic α1D (Homo sapiens, UniProt P25100)
Protocol: as §1, §2

[10] = target: N-Formyl Peptide Receptor-Like FPRL1 (Homo sapiens, UniProt P25090)
Protocol: as §1, §2

Vasopressin V1B = target: T8, Vasopressin V1B (Homo sapiens, UniProt P47901)
T8 construct: host or cells: tissue or cell homogenate, not specified
Protocol: as §1, §2

Bombesin BB2 = Bombesin BB2 (Homo sapiens, UniProt P30550)
Protocol: as §1, §2

Chain of Somatostatin sst2 (P30874 whole entry): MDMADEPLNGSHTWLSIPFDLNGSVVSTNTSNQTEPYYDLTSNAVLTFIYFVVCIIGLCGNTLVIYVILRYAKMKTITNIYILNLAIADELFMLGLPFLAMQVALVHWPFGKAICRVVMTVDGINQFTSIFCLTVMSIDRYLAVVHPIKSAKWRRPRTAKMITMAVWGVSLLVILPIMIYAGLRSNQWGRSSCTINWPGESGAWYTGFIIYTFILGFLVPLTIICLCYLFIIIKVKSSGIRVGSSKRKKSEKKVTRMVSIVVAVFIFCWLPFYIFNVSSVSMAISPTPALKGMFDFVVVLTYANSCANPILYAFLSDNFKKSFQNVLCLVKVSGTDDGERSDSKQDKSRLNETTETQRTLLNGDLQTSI
T2 sequence (Q96P65 whole entry): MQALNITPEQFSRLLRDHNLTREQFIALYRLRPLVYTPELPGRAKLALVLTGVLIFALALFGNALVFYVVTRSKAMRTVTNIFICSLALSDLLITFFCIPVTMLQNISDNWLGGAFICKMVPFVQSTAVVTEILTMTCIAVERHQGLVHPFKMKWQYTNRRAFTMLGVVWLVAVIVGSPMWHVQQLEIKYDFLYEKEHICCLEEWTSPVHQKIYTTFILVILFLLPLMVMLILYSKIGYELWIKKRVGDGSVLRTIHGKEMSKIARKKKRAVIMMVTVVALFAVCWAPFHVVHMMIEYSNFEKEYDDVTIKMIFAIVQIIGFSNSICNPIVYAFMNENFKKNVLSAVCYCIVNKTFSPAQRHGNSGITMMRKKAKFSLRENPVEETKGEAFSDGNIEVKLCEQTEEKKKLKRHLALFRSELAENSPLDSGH
Chain of Motilin (O43193 whole entry): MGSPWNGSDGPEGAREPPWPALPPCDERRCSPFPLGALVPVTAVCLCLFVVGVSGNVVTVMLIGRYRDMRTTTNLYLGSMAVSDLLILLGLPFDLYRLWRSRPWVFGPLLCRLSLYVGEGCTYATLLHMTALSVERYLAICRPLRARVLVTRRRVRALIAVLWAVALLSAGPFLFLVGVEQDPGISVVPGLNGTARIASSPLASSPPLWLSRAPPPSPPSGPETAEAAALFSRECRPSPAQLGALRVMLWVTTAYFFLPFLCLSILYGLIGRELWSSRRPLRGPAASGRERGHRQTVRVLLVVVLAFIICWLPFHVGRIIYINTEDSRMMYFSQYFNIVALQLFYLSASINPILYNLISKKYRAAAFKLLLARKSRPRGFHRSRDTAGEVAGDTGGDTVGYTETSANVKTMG
Chain of Neuromedin U MNU2 (Q9GZQ4 whole entry): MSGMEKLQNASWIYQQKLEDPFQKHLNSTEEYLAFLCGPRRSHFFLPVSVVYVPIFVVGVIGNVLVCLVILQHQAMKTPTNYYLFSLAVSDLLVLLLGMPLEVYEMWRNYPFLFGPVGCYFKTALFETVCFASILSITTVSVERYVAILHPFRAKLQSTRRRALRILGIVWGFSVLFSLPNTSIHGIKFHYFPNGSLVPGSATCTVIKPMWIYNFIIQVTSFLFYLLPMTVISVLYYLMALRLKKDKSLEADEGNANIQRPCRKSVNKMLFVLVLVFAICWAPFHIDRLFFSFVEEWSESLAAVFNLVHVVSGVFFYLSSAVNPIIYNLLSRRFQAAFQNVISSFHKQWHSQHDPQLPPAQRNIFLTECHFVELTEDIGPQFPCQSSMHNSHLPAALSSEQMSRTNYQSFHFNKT
Chain of Insulin (P15127 27-759 limits assumed): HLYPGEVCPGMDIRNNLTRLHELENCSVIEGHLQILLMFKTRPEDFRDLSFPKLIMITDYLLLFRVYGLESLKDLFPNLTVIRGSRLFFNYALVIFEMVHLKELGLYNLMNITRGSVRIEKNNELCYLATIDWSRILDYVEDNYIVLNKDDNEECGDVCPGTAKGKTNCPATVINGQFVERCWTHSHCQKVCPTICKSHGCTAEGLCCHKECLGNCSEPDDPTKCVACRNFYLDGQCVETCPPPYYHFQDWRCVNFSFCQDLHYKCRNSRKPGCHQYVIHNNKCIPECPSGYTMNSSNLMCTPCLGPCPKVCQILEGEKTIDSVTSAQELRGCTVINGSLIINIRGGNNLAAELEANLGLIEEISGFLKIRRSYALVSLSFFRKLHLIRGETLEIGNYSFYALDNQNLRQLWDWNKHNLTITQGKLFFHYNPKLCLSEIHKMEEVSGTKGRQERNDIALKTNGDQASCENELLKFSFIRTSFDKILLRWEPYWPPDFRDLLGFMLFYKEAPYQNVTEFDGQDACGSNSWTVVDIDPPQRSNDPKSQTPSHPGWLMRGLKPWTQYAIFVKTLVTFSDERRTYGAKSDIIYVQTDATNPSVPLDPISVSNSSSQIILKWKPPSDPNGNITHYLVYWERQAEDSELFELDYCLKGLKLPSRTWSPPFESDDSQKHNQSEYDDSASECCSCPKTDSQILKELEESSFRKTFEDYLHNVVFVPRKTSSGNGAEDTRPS
Chain of Insulin (P15127 764-1383 partner limits assumed): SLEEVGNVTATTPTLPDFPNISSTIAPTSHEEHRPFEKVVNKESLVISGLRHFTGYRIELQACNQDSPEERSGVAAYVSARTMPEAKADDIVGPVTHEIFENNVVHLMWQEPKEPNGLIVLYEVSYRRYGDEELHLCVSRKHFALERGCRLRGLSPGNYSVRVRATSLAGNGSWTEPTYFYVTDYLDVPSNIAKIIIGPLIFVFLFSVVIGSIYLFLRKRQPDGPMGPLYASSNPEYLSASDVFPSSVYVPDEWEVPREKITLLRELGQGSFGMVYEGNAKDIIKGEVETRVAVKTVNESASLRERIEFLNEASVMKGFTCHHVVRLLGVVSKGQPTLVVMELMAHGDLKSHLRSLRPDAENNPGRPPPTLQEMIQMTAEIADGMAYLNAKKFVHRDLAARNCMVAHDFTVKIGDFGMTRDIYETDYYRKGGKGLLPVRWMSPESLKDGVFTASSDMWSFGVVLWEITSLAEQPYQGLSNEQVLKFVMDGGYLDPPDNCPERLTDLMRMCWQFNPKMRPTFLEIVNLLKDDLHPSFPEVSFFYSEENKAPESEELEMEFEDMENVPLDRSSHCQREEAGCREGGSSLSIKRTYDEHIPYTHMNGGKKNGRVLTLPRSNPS
Chain of Angiotensin AT1 (P30556 whole entry): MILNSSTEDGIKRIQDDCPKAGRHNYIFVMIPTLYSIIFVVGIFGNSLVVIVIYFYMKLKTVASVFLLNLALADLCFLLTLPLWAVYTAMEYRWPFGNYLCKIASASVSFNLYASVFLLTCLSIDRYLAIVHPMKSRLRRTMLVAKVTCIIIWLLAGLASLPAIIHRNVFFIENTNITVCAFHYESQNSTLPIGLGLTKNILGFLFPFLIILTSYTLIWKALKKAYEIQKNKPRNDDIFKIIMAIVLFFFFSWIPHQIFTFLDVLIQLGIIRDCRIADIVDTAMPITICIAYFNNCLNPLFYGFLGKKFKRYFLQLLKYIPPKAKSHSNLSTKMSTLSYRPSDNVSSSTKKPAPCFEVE
Chain of Angiotensin AT2 (P50052 whole entry): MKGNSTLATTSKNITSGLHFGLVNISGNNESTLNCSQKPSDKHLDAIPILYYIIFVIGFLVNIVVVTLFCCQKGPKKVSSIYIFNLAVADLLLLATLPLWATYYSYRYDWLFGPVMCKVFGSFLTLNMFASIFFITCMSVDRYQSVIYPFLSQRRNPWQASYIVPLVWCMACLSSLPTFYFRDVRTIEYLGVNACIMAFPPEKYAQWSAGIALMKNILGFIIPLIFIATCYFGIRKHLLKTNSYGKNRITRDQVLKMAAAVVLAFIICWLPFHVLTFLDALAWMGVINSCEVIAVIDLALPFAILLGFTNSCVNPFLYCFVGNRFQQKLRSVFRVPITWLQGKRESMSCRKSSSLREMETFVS
T4 sequence (P00533 25-1210): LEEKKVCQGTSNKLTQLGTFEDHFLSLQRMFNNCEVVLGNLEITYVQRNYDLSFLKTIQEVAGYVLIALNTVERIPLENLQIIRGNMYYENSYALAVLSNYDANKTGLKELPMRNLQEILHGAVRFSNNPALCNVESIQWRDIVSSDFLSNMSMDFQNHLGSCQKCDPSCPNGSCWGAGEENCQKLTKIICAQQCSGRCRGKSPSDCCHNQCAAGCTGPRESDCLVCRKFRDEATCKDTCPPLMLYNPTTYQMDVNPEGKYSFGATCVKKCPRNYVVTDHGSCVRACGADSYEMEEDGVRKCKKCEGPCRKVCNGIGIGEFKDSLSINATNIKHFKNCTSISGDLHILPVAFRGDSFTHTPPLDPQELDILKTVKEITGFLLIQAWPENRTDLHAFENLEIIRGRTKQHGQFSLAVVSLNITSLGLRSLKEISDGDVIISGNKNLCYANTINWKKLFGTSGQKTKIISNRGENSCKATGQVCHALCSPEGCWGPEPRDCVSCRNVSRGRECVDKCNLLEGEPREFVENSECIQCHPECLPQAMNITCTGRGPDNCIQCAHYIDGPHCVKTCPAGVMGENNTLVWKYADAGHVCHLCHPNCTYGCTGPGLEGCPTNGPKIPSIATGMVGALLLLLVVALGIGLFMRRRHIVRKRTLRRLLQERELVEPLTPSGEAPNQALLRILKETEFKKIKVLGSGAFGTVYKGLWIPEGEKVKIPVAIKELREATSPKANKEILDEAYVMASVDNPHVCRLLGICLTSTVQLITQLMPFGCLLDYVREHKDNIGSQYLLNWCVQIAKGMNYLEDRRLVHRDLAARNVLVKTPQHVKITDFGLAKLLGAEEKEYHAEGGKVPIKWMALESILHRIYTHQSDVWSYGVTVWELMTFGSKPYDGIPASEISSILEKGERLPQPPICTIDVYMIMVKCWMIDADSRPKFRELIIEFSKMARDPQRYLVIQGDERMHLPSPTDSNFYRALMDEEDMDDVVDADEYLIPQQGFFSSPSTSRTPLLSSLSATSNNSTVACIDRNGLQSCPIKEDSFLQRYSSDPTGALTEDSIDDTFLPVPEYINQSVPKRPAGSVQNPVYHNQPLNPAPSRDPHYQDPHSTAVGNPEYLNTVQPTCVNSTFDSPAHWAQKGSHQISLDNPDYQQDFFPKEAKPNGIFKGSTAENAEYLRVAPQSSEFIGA

C[C@@H]1CC[C@@]2(OC1)O[C@H]1C[C@H]3[C@@H]4CC[C@@H]5C[C@@H](O)CC[C@]5(C)[C@H]4CC[C@]3(C)[C@H]1[C@@H]2C [Smilagenin, smilagenin]
Effect (%) (Adrenergic β3): NS (NS = No significant response. Significance was taken as ≧30% stimulation or inhibition) | Effect (%) [1]: NS (NS = No significant response. Significance was taken as ≧30% stimulation or inhibition) | Effect (%) (Tachykinin NK3): NS (NS = No significant response. Significance was taken as ≧30% stimulation or inhibition) | Effect (%) (Leukotriene, BLT (LTB4)): NS (NS = No significant response. Significance was taken as ≧30% stimulation or inhibition) | Effect (%) (Oestrogen (Erβ)): NS (NS = No significant response. Significance was taken as ≧30% stimulation or inhibition) | Effect (%) (Melanocortin MC5): NS (NS = No significant response. Significance was taken as ≧30% stimulation or inhibition) | Effect (%) [2]: NS (NS = No significant response. Significance was taken as ≧30% stimulation or inhibition) | Effect (%) (Bradykinin B1): NS (NS = No significant response. Significance was taken as ≧30% stimulation or inhibition) | Effect (%) [3]: NS (NS = No significant response. Significance was taken as ≧30% stimulation or inhibition) | Effect (%) (Somatostatin sst2): NS (NS = No significant response. Significance was taken as ≧30% stimulation or inhibition) | Effect (%) (Erythropoietin EPOR): NS (NS = No significant response. Significance was taken as ≧30% stimulation or inhibition) | Effect (%) [4]: NS (NS = No significant response. Significance was taken as ≧30% stimulation or inhibition) | Effect (%) (Neuromedin U MNU1): NS (NS = No significant response. Significance was taken as ≧30% stimulation or inhibition) | Effect (%) (Vasopressin V2): NS (NS = No significant response. Significance was taken as ≧30% stimulation or inhibition) | Effect (%) [5]: NS (NS = No significant response. Significance was taken as ≧30% stimulation or inhibition) | Effect (%) (Bombesin BB3): NS (NS = No significant response. Significance was taken as ≧30% stimulation or inhibition) | Effect (%) (Insulin): NS (NS = No significant response. Significance was taken as ≧30% stimulation or inhibition) | Effect (%) (Dopamine D3): NS (NS = No significant response. Significance was taken as ≧30% stimulation or inhibition) | Effect (%) (Neuromedin U MNU2): NS (NS = No significant response. Significance was taken as ≧30% stimulation or inhibition) | Effect (%) (Neurotensin NT1): NS (NS = No significant response. Significance was taken as ≧30% stimulation or inhibition) | Effect (%) (Melanocortin MC3): NS (NS = No significant response. Significance was taken as ≧30% stimulation or inhibition) | Effect (%) (Muscarinic M3): NS (NS = No significant response. Significance was taken as ≧30% stimulation or inhibition) | Effect (%) (Motilin): NS (NS = No significant response. Significance was taken as ≧30% stimulation or inhibition) | Effect (%) [6]: NS (NS = No significant response. Significance was taken as ≧30% stimulation or inhibition) | Effect (%) [7]: NS (NS = No significant response. Significance was taken as ≧30% stimulation or inhibition) | Effect (%) [8]: NS (NS = No significant response. Significance was taken as ≧30% stimulation or inhibition) | Effect (%) [9]: NS (NS = No significant response. Significance was taken as ≧30% stimulation or inhibition) | Effect (%) (Somatostatin sstl): NS (NS = No significant response. Significance was taken as ≧30% stimulation or inhibition) | Effect (%) (Opiate μ (OP3, MOP)): NS (NS = No significant response. Significance was taken as ≧30% stimulation or inhibition) | Effect (%) (Retanoid X Receptor RXRα): NS (NS = No significant response. Significance was taken as ≧30% stimulation or inhibition) | Effect (%) (Angiotensin AT2): NS (NS = No significant response. Significance was taken as ≧30% stimulation or inhibition) | Effect (%) (Angiotensin AT1): NS (NS = No significant response. Significance was taken as ≧30% stimulation or inhibition) | Effect (%) (Adrenergic α1D): NS (NS = No significant response. Significance was taken as ≧30% stimulation or inhibition) | Effect (%) [10]: NS (NS = No significant response. Significance was taken as ≧30% stimulation or inhibition) | Effect (%) (Vasopressin V1B): NS (NS = No significant response. Significance was taken as ≧30% stimulation or inhibition) | Effect (%) (Bombesin BB2): NS (NS = No significant response. Significance was taken as ≧30% stimulation or inhibition)
